Laboratory results as given in patent US6403637B1, “Methods of modulating matrix metalloproteinase activity and uses thereof” (priority 1999, dated 2002).

Assays:
UMR 106-01 cells [1] = assay: Competition for 125I collagenase-3 binding in UMR 106-01 cells; set-up: species or system rat; details: 125I-rat collagenase-3
Experimental: (§1) For all binding experiments, cells were seeded into 2.0 cm^2 wells. After the cells reached approximately 95% confluence, the medium was replaced with fresh medium containing 1 mg/ml BSA and the cells were assayed for binding 4 h later. The cells were first washed with maintenance medium, then incubated in the same medium with 0.01% Tween 80 containing ^125I-rat collagenase-3 or other iodinated ligands at 4° C. for 2 h. Non-specific binding was assessed by adding a 50-100-fold excess of cold ligand to half the wells, while an equivalent volume of buffer was added to the remaining wells. After incubation, the wells were washed three times with ice-cold MEM (0.5 ml). The cells were then lysed with 500 μl of 1 M NaOH and the lysates were counted on a gamma counter. Protein labeling with ^125I was done using the chloramine T method (Greenwood et al., 1963, Biochem. J. 89:114). The proteins had specific activities ranging from 9 to 27 μCi/μg.
These proteins were used as competitors in a series of binding assays in UMR cells using ^125I mouse collagenase-3. Radioactive labeling and binding assays were performed as in Example 1.

UMR 106-01 cells [2] = assay: Internalization assay in UMR 106-01 cells; format: cell-based, rat; set-up: reduction of intracellular accumulation of 125I-collagenase: dose or concentration left out as unconfirmed
Experimental: (§2) Although the low density lipoprotein receptor-related protein is not required for rat collagenase-3 binding to the cell, it might be required for ligand internalization. Therefore, internalization assays were performed with ^125I-rat collagenase-3 using MEF-1 and MEF-2 cells as follows. After binding 125I-rat labeled proteins as above, the cells were washed three times with cold modified Eagle's media (0.5 ml) to remove unbound ligand. The cells were then warmed to 37° C. by the addition of prewarmed modified Eagle's media (0.25 ml), and incubated at 37° C. for selected intervals. At each time point, the media were collected, and the cells were washed once with ice-cold MEM, then incubated with 0.25% Pronase®-E in modified Eagle's media for 15 min at 4° C. to strip cell surface proteins. The cell suspension was then centrifuged, and the radioactivity associated with cell pellets (defining internalized ^125I-proteins) was measured at each time point.
It is known that RAP inhibits internalization of ligands by the low density lipoprotein receptor-related protein (Kounnas et al., 1996, J. Biol. Chem 271:6523). Therefore, internalization assays were performed using ^125I-labeled rat collagenase-3 as a ligand and receptor-associated protein as a competitor. Human receptor-associated protein from the pGEX-receptor-associated protein expression vector (provided by Dr. Joachim Herz, University of Texas Southwestern Medical Center, Dallas, Tex.) was expressed in bacteria and prepared as described in Herz et al., 1991, J. Biol. Chem. 266:21232.
To investigate the mechanism by which RAP regulates internalization of collagenase-3, an experiment was performed where excess unlabeled RAP or rat collagenase-3 was prebound to UMR 106-01 cells. Binding and internalization of ^125I-labeled rat collagenase-3 and RAP were then allowed to proceed.

normal rat osteoblasts = assay: Internalization of 125I-rat collagenase-3 in normal rat osteoblasts; format: cell-based; set-up: reduction of intracellular accumulation of 125I-collagenase: dose or concentration left out as unconfirmed
Experimental: Previous work has shown that the rat collagenase-3 endocytosis receptor system is present on UMR 106-01 rat osteosarcoma cells (Omura et al, 1994, J. Biol. Chem. 269:24994). To determine whether the receptor is present in other cells, several cell types were tested for their ability to bind rat collagenase-3. These cell types were normal rat osteoblasts, rat embryo fibroblasts, the rat epithelial breast carcinoma cell line BC-1, mouse NIH 3T3 fibroblasts, the human osteosarcoma cell line SAOS-2, and the rat osteosarcoma cell lines ROS 17/2.8 and UMR 106-01. The human osteosarcoma cell line SAOS-2 (ATCC HTB 85) and the mouse embryo fibroblast cell line NIH 3T3 (ATCC CRL 1658) were cultured according to recommendations of the American Type Culture Collection, Rockville, Md. UMR 106-01 rat osteosarcoma cells were cultured as described in Roswit et al., 1992, Arch. Biochem. Biophys. […]
Although the low density lipoprotein receptor-related protein is not required for rat collagenase-3 binding to the cell, it might be required for ligand internalization. […] The cell suspension was then centrifuged, and the radioactivity associated with cell pellets (defining internalized ^125I-proteins) was measured at each time point.
The ability of receptor-associated protein to inhibit internalization of ^125I-rat collagenase-3 in UMR 106-01 osteoblastic cells and normal rat osteoblasts was determined next. […]

human chondrocytes [3] = assay: Internalization of 125I collagenase-3 by human chondrocytes; format: cell-based; details: p<0.001
Experimental: as §2
Human tissue (articular cartilage and synovium) was obtained at surgery or autopsy and was prepared as follows. […]
To determine whether the decreased collagenase-3 binding in osteoarthritis tissues correlated with reduced receptor function, the amount of ^125I collagenase which was internalized by osteoarthritis and control chondrocytes was determined as described in Example 1. […]

synoviocytes = assay: Internalization of 125I collagenase-3 by human synoviocytes; format: cell-based; details: compared to chondrocytes
Experimental: as §2
(§3) Human tissue (articular cartilage and synovium) was obtained at surgery or autopsy and was prepared as follows. Tissue was minced in a laminar flow hood, then incubated in sterile filtered serum-free Dulbecco's modified Eagle's medium (50 ml) containing trypsin (0.25%) for 1 h at 37° C. on an orbital shaker. […]

human chondrocytes [4] = assay: Excretion of degraded (TCA-soluble) 125I-collagenase-3 from human chondrocytes; format: cell-based
Experimental: (§4) Excretion of degraded matrix metalloproteinase is preferably evaluated by performing steps (a) through (e) of the internalization assay described above, collecting the media overlying the cells after incubating for 15 min to I hr, precipitating intact proteins from the collected media (e.g., incubating for 2 hr with 20% trichloroacetic acid in ethanol and 2% bovine serum albumin), pelleting the precipitated intact proteins, and measuring the label in the supernatant (e.g., by gamma counting ^125I).
as §3
(§5) As receptor-mediated processing of collagenase-3 culminates in lysosomal degradation and extracellular release of the ligand, binding and degradation assays as above were performed and measured the presence of degraded (TCA-soluble) ^125I-collagenase-3 in the media overlying cells. […]

human synoviocytes = assay: Excretion of degraded (TCA-soluble) 125I-collagenase-3 from human synoviocytes; format: cell-based
Experimental: as §4, §3, §5

human chondrocytes [5] = assay: Binding of 125I collagenase-3 to human chondrocytes; details: osteoarthritis chondrocytes, 10 μM b.i.d. for three days; p<0.05
Experimental: as §1, §3

[6] = 3 nM 125I-rat collagenase-3 + 100 nM RAP, mean ± SEM, triplicate

| % of maximum internalization, Normal rat osteoblasts (normal rat osteoblasts; [6]) [%] | reduction of intracellular accumulation of 125I-collagenase (normal rat osteoblasts; receptor-associated protein in binding medium, normal mineralizing rat osteoblasts) [%] | inhibition of collagenase-3 internalization (human chondrocytes [3]; control chondrocytes) [%] | reduction of collagenase-3 internalization (human chondrocytes [3]; osteoarthritis chondrocytes) [%] | inhibition of collagenase-3 internalization (in words) (synoviocytes) | effect on excretion of collagenase-3 (in words) (human chondrocytes [4]; chondrocytes) | effect on excretion of collagenase-3 (in words) (human synoviocytes) | Molecule | competition with / inhibition of 125I-rat collagenase-3 binding (in words) (UMR 106-01 cells [1]) | % of maximum internalization, UMR 106-01 rat osteoblasts (UMR 106-01 cells [2]; [6]) [%] | inhibition of internalization of 125I-rat collagenase-3 (UMR 106-01 cells [2]; FIG. 10, increasing concentrations of RAP) | effect of prebound excess unlabeled protein on rat collagenase-3 internalization (UMR 106-01 cells [2]; prebound to cells) | reduction of intracellular accumulation of 125I-collagenase (UMR 106-01 cells [2]; receptor-associated protein in binding medium) [%] | increase in collagenase-3 binding (human chondrocytes [5]) [%] | enhancement of excretion of degraded collagenase-3 (human chondrocytes [4]; osteoarthritis chondrocytes, 10 μM b.i.d. for three days, p<0.02) |
| --- | --- | --- | --- | --- | --- | --- | --- | --- | --- | --- | --- | --- | --- | --- |
| 56.99 ± 4.49 | 43 | 88.2 | 74.3 | similar | inhibited | inhibited | RAP: human receptor-associated protein expressed in bacteria from the pGEX expression vector; inhibits ligand internalization by LRP | does not inhibit | 20.84 ± 1.98 | approximately 70% | inhibited | 79 |  |  |
|  |  |  |  |  |  |  | CC[C@H](C)C(=O)O[C@H]1C[C@H](O)C=C2C=C[C@H](C)[C@H](CC[C@@H](O)C[C@@H](O)CC(=O)[O-])[C@H]21.[Na+] [pravastatin, Pravastatin sodium] |  |  |  |  |  | 30 | over 320% |
